Assay results reported in ChEMBL document CHEMBL4321846, “Discovery of a Potent and Selective Oral Inhibitor of ERK1/2 (AZD0364) That Is Efficacious in Both Monotherapy and Combination Therapy in Models of Nonsmall Cell Lung Cancer (NSCLC)” (J Med Chem, 2019).

Tests used:
[1] = target: T1, Mitogen-activated protein kinase 1 (Homo sapiens, UniProt P28482)
[2] = target: T1, Mitogen-activated protein kinase 1; remark: listed apart in the source
[3] = target: T1, Mitogen-activated protein kinase 1; remark: listed apart in the source
[4] = target: T1, Mitogen-activated protein kinase 1; remark: listed apart in the source
[5] = target: T1, Mitogen-activated protein kinase 1; assay: Inhibition of MEK U911-activated ERK2 (unknown origin) using ERKtide as substrate preincubated for 20 mins followed by substrate addition in presence of ATP at Km concentration after 20 mins by rapidfire mass spectrometry analysis
[6] = target: T1, Mitogen-activated protein kinase 1; assay: Inhibition of MEK U911-activated ERK2 (unknown origin) using ERKtide as substrate preincubated for 20 mins followed by substrate addition in presence of 1 mM ATP after 10 mins by rapidfire mass spectrometry analysis
[7] = target: T2, Mitogen-activated protein kinase; ERK1/ERK2 (Homo sapiens, UniProt P27361+P28482); assay: Inhibition of ERK1/2 in human A375 cells assessed as inhibition of ERK phosphorylation after 2 hrs; assay type: cell-based
[8] = target: T2, Mitogen-activated protein kinase; ERK1/ERK2; assay: Inhibition of ERK1/2 in human A375 cells assessed as inhibition of RSK phosphorylation after 2 hrs; assay type: cell-based
[9] = target: Voltage-gated inwardly rectifying potassium channel KCNH2 (Homo sapiens, UniProt Q12809)
[10] = target: T1, Mitogen-activated protein kinase 1; remark: listed apart in the source
[11] = target: T1, Mitogen-activated protein kinase 1; remark: listed apart in the source

T1 sequence (P28482 whole entry): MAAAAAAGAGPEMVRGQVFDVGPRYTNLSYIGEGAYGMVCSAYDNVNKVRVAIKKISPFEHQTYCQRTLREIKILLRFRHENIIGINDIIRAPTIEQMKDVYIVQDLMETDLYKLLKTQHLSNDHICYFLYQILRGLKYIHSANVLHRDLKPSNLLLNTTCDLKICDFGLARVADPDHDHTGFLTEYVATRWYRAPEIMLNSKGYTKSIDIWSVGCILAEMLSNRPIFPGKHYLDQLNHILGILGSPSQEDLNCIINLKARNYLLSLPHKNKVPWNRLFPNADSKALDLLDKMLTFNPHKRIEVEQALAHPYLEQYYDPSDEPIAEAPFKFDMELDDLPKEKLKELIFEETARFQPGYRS
Chain of Voltage-gated inwardly rectifying potassium channel KCNH2 (Q12809 whole entry): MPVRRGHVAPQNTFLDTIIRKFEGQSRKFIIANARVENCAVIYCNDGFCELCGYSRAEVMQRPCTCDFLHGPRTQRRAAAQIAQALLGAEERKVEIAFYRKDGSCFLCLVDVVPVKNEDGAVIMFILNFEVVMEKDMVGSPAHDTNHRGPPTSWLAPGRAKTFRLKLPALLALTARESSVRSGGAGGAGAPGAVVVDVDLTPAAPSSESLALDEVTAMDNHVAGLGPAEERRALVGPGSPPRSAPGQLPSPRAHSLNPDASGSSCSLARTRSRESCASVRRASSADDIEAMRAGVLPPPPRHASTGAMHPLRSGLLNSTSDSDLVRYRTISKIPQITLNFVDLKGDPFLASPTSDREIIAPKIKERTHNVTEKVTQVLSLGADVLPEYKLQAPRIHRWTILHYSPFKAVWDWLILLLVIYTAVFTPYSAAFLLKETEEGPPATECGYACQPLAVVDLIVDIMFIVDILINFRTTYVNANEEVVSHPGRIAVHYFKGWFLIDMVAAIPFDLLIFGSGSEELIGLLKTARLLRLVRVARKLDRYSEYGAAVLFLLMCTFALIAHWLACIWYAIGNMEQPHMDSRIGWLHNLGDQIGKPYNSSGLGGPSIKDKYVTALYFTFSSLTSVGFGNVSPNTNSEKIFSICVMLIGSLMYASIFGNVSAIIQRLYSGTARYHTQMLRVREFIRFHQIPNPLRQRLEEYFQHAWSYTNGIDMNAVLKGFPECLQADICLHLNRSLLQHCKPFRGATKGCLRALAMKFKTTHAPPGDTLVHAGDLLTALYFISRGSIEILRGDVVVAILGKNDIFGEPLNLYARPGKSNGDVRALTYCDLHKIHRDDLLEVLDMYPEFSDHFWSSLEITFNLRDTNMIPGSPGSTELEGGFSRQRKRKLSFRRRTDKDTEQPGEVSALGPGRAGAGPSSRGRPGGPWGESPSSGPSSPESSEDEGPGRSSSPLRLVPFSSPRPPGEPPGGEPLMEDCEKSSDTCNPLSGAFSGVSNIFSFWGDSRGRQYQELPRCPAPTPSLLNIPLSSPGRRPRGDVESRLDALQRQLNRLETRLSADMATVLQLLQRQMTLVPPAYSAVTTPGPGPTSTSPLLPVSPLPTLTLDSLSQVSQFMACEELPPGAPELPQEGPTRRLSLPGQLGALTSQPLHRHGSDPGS

| SMILES | Ka [1] | Kdiss [2] | T1/2 [3] | T1/2 [4] | IC50 [5] | IC50 [6] | IC50 [7] | IC50 [8] | Ka [10] | Kdiss [11] | IC50 [9] |
| --- | --- | --- | --- | --- | --- | --- | --- | --- | --- | --- | --- |
| Cc1cnc(Nc2ccnn2C)nc1-c1cn2c(n1)C(=O)N(Cc1ccc(F)c(F)c1)CC2 |  |  |  |  | 0.83 nM | 2.6 nM | 9.1 nM | 31 nM |  |  | 23000 nM |
| COC[C@H]1Cn2cc(-c3nc(Nc4ccnn4C)ncc3C)cc2C(=O)N1Cc1cccc(C)n1 |  |  |  |  | < 0.3 nM | 0.6 nM | 30 nM | 60 nM |  |  |  |
| Cc1cnc(Nc2ccnn2C)nc1-c1cn2c(n1)C(=O)N(Cc1ccc(F)c(F)c1)[C@@H](C)C2 |  |  |  |  | < 0.3 nM | 0.32 nM | 3.4 nM | 38 nM |  |  | 23000 nM |

Continued, in another order:

| Ka [1] | Kdiss [2] | T1/2 [3] | T1/2 [4] | IC50 [5] | IC50 [6] | IC50 [7] | IC50 [8] | Ka [10] | Kdiss [11] | SMILES | IC50 [9] |
| --- | --- | --- | --- | --- | --- | --- | --- | --- | --- | --- | --- |
| 9.8 ×10⁻⁶ /M/s | 9.9 ×10⁻³ /s | 1.2 min | 0.8 min |  |  |  |  |  |  | Cn1nccc1Nc1nccc(-c2ccn([C@H](CO)c3ccc(Cl)c(F)c3)c(=O)c2)n1 |  |
| 1.3 ×10⁻⁶ /M/s | 7.4 ×10⁻³ /s | 2 min | 35 min |  |  |  |  | 7.5 ×10⁻⁵ /M/s | 4.1 ×10⁻⁴ /s | CC(C)Nc1cc(-c2c[nH]c(C(=O)N[C@H](CO)c3cccc(Cl)c3)c2)c(Cl)cn1 |  |
